# Laboratory results: US9180115B2, “Cyclohexylamines” (Asana Biosciences, LLC, priority 2011, dated 2015)
# “And” between values parts separate entries of the source, which are not always exact repeats. Equal values may be shown once. Read-outs that look alike come from different tables or passages of the source.
# Tests used:
# [1] = tested on: Male Sprague Dawley (SD) rats; assay: In vivo assay of mechanical nociception (rat pinch model, perisciatic injection); conditions: for Average Time of Analgesia: test compound 0.5%
# [2] = biological target: T1, human Nav1.5 sodium channel (Homo sapiens, UniProt Q14524); assay: FLIPR membrane potential assay in hNav1.5-HEK293 cells; type: cell-based
# T1 construct: host or cells: HEK-293
# T1 sequence (Q14524 whole entry): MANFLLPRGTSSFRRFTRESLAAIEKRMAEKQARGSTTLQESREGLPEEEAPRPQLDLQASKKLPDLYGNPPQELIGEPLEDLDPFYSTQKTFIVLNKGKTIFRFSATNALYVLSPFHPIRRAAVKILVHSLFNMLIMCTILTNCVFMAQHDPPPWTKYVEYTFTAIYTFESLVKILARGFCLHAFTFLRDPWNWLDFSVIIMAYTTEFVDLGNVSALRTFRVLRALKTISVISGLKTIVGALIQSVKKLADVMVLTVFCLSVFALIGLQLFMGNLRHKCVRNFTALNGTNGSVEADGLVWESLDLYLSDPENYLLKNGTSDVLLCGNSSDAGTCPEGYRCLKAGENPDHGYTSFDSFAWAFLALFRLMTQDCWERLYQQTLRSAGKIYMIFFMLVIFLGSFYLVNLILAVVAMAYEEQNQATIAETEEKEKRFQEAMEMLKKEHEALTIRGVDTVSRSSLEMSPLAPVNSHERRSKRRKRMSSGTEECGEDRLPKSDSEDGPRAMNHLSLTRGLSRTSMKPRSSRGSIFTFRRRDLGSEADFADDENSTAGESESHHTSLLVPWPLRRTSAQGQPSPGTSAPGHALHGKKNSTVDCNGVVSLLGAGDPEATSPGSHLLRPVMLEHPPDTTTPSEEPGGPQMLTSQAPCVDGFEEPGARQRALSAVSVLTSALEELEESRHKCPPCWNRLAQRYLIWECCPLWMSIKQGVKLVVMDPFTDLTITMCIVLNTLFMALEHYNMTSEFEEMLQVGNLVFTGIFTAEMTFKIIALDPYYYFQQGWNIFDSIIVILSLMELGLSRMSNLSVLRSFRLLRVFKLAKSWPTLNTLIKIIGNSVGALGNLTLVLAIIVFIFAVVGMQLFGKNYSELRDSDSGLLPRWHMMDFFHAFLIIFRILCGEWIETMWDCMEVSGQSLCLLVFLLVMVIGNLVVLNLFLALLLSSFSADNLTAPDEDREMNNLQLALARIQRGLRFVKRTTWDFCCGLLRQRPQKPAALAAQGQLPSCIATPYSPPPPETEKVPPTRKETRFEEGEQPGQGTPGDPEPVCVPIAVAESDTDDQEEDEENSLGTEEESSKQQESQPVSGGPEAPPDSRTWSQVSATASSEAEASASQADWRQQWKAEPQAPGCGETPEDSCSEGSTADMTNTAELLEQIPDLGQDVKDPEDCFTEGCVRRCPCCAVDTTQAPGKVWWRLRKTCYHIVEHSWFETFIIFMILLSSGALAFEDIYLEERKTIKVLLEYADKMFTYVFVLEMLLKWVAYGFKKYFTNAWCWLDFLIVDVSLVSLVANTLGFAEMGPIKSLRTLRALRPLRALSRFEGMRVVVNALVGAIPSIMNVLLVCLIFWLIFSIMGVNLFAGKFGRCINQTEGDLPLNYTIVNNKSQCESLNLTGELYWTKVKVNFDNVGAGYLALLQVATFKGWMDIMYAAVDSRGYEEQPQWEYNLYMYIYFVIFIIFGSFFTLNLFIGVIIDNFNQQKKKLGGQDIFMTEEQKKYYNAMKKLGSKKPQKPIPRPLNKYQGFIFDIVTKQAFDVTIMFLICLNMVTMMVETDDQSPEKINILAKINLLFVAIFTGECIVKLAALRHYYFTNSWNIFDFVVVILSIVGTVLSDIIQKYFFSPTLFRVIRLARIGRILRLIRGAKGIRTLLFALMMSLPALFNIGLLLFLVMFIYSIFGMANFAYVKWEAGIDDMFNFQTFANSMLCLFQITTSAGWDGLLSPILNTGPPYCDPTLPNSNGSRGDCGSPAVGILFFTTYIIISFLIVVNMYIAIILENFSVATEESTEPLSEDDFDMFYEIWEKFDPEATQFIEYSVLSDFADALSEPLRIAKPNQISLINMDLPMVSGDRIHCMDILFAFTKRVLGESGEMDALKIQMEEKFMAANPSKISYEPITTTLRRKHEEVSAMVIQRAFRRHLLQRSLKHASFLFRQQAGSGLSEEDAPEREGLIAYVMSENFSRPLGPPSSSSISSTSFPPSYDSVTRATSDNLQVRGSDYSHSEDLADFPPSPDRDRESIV
# Protocol: C. Method for Assessing the Extent of Inhibition of Sodium Channel Response with Compounds in hNav1.5-HEK293 Cells.
# The following assay was used to assess the tendency of the test compounds to block the dominant cardiac sodium channel isoform. Nav1.5 sodium channels are known to be permeable to quaternary sodium channel blockers such as QX-314 and, thus, the assay was performed in the absence of a chemical TRPV1 agonist.
# The hNav1.5-HEK-293 cells (CreaCell, France, a human embryonic kidney cell line expressing the human Nav1.5 sodium channel) were cultured in Growth medium (containing 1×DMEM (Gibco)+10% FBS (PAA Gold)+2% glutamine 100 mM (Gibco)+1% penicillin 10,000 U/mL streptomycin 10,000 μg/mL (Invitrogen)+1.2 mg/mL Geneticin® G418 (Invitrogen)) in 75 mL cell bind flasks (Corning). The following steps were followed exactly as mentioned. The spent medium was discarded and the cells rinsed once with PBS-1×. Accutase® (1-2 mL; PAA) solution was added. The plate was placed on a 37° C. warming incubator 3-5 minutes. As soon as cells are detached, 37° C. complete medium (9 mL) was added. The cell suspension is drawn into a sterile pipette and cells homogenized gently to dissociate cell aggregates. The cells were counted using a hemocytometer with Blue Trypan and then centrifuged 5 minutes at 400 g. The cells can be amplified or maintained by seeding […] in a T75 flask (final volume: 15 mL). 8000 cells in 50 μL Growth medium was added to each well of 384-well, clear bottomed, sterile poly-D-lysine coated plates with lid (Greiner-bio one) inside the laminar air-flow. The plates were incubated at 37° C. and 5% CO2 in a CO2 incubator (Thermo) for 48 hours.
# On the day of the assay, cells were washed with Assay buffer, which was prepared using the components and amounts in the following Table 5. pH was adjusted to 7.4 with NaOH, volume made up to 500 mL with Milli-Q® water.
# Assay Buffer was added to the cells and incubated at rt (25° C.) for 10 minutes. The compounds were diluted in assay buffer. The compounds were added and incubated at rt (25° C.) for 10 minutes. Red FMP Dye (MDC) was added to the cells and the plate was incubated at rt (25° C.) for 30 minutes. Veratridine stock (20 mM; Sigma) was prepared in DMSO; veratridine (final concentration of 30 μM) in assay buffer was added to each well of the cell seeded plates in the FLIPR and read taken for 10 minutes. The following table provides data illustrating the sodium channel activity of the test compounds in response to the presence or absence of heat stimulation in cells expressing hTRPV1. The compounds were tested for differential activity at 25° C. and 47° C. and at two test concentrations.
# [3] = tested on: sodium channel response in hTRPV1-N1E115 cells; assay: FLIPR membrane potential assay of sodium channel response in hTRPV1-N1E115 cells with or without heat (47° C.) activation; type: cell-based; conditions: for hTRPV1-N1E Nav 0.1 mM (% inhibition) 25° C.: 25° C. (no heat activation)
# In short: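 hTRPV1-N1E115 cells loaded with FMP membrane-potential dye; compound added, then one duplicate plate heated at 47° C. for 10 min plus 30 min at room temperature, the other kept at room temperature 40 min. Depolarization by veratridine 100 μM final, with ATX-II 3 μM final; inhibition of the fluorescence signal scored.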
# isolated detrusor muscle = assay: In vitro assay for effect of compounds on bladder detrusor muscle (EFS-induced contractions); set-up: species or system guinea-pigs; conditions: cumulative concentration-response
# [4] = tested on: sodium current in DRG neurons; conditions: co-applied with 1 μM capsaicin, whole-cell voltage clamp; read-out: in vitro apparent affinity (IC50) for blocking sodium current in DRG neurons; cited from earlier work
smiles,measurement,setting,value
"Cc1cccc(C)c1C(=O)OC(C)C[N+](C)(C)C1CCCCC1.[I-] (stereo not drawn) [Example 6, N-[2-((2,6-Dimethylbenzoyl)oxy)propyl]-N,N-dimethylcyclohexanaminium iodide]",analgesic effects in the absence of lidocaine,[1]; absence of lidocaine,analgesic effects of significant duration
same,Average Time of Analgesia,"[1]; lidocaine 0%, injection 200 μL",5 h
same,Average Time of Analgesia,"[1]; lidocaine 2%, injection 100 μL",8 h
same,Average Time of Analgesia,"[1]; lidocaine 2%, injection 200 μL",14 h and 10 h
same,"inhibition at 10 min, 0.5 mM","[2]; human, hNav1.5-HEK293 cells (HEK-293 cells expressing human Nav1.5), pH 7.4, 0.5 mM, read-out: HEK Nay 1.5% inh. @ 0.5 mM",30%
same,"inhibition at 10 min, 1.5 mM","[2]; human, hNav1.5-HEK293 cells (HEK-293 cells expressing human Nav1.5), pH 7.4, 1.5 mM, read-out: HEK Nav 1.5% inh. @ 1.5 mM",68%
same,IC50,[2]; read-out: HEK Nav 1.5 IC50 (μM) (AVG),684 µM
same,"hTRPV1-N1E Nav (% inhibition) 25° C., 0.5 mM","[3]; 0.5 mM, 25° C.","24 (N = 2, %"
same,"hTRPV1-N1E Nav (% inhibition) 47° C., 0.5 mM","[3]; 0.5 mM, 47° C.","80 (N = 2, %"
same,"hTRPV1-N1E Nav (% inhibition) 25° C., 5 mM","[3]; 5 mM, 25° C.","58 (N = 2, %"
same,"hTRPV1-N1E Nav (% inhibition) 47° C., 5 mM","[3]; 5 mM, 47° C.","92 (N = 2, %"
same,hTRPV1-N1E IC50 (μM) 47° C.,[3]; 47° C.,B ′
"C[C@H](C[N+](C)(C)C1CCCCC1)OC(=O)c1ccc(C(C)(C)C)cc1.[I-] [Example 47, (R)-N-[2-((4-(tert-butyl)benzoyl)oxy)propyl]-N,N-dimethylcyclo-hexanaminium iodide]",Average Time of Analgesia,"[1]; lidocaine 2%, injection 200 μL",24 h
same,IC50,[2]; HEK Nav 1.5 IC50 (μM) (AVG),255 µM
same,hTRPV1-N1E Nav 0.1 mM (% inhibition) 25° C.,[3],54 (N = 4) %
same,IC50,"[3]; 47° C., read-out: hTRPV1-N1E IC50 (μM) 47° C.",10 to 100 µM
CCN(CC)CC(=O)Nc1c(C)cccc1C [lidocaine],EFS-induced detrusor contractions,isolated detrusor muscle,concentration-dependent inhibitions of EFS-induced detrusor contractions
"C[C@@H](C[N+](C)(C)C1CCCCC1)OC(=O)c1ccc(C(C)(C)C)cc1.[I-] [Example 46, (S)-N-[2-((4-(tert-butyl)benzoyl)oxy)propyl]-N,N-dimethylcyclo-hexanaminium iodide]",Average Time of Analgesia,"[1]; lidocaine 2%, injection 200 μL",24 h
same,IC50,[2]; HEK Nav 1.5 IC50 (μM) (AVG),232 µM
same,hTRPV1-N1E Nav 0.1 mM (% inhibition) 25° C.,[3],40 (N = 4) %
CC[N+](CC)(CC)CC(=O)Nc1c(C)cccc1C [QX-314],IC50,[4],30 µM
